Laboratory results as given in patent US7947287B2, “Peptides for the treatment of cancer associated with the human papilloma virus (HPV) and other epithelial tumors” (Centro de Ingenieria Genetica y Biotecnolgia, priority 2001, dated 2011).
Bridges are numbered along the chain shown (N, C = ends). Where no end group is shown, it is not given here.

Test system: H-125 cells (Non-Small Lung Cell Cancer)
Experiment: antitumor effect in human tumors implanted in nude mice
Assay type: in vivo, BalbC nude mice
Conditions: H-125 subcutaneous, 1 to 10 mg/Kg every other day for one month, FIG. 6
Description: For these experiments, 6-8 week old female BalbC nude mice were used. The tumor implantation was performed using H-125 cells (Non-Small Lung Cell Cancer) that were resuspended in saline solution (PBS) at 1000 000 cells/ml. Cell suspension was inoculated subcutaneously in the abdomen. Peptide administration (sequence 1 on the list) was made together with the cells and continued every other day until completing one month of treatment. In this assay, doses ranging between 1 and 10 mg/Kg of weight were evaluated. To examine the antitumor effect, parameters like tumor mass and survival of the animals were evaluated.

CSVRQGPVQKC (disulfide 1-11 (inferred)) [sequence 1 on the list]
inhibition of tumor progression: effective in terms of the inhibition of tumor progression
